From the supplement of paper PMC11451515

Test system: SEM cells
Test: cell viability relative to DMSO control; higher = less cytotoxic
Conditions: 48 h
Method in brief: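 NOMO1 or SEM cells were plated at 500 cells/well and P12-Ichikawa cells at 1000 cells/well in 1536-well plates (5 μl), after each leukemia line had been adapted for at least four passages in each medium. Pin dosing delivered library compounds in DMSO at 11 threefold concentrations, 47 μM to 0.79 nM. CellTiter-Glo One luminescence was read after 48 h at 37°C. Viability is reported as a per-plate percentage of DMSO wells, with cell-free wells as background.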

[1] = HPLM + 10% dialyzed FBS, 0.000781 µM
[2] = HPLM + 10% dialyzed FBS, 0.00234 µM
[3] = HPLM + 10% dialyzed FBS, 0.00702 µM
[4] = HPLM + 10% dialyzed FBS, 0.0211 µM
[5] = HPLM + 10% dialyzed FBS, 0.0632 µM
[6] = HPLM + 10% dialyzed FBS, 0.19 µM
[7] = HPLM + 10% dialyzed FBS, 0.569 µM
[8] = HPLM + 10% dialyzed FBS, 1.71 µM
[9] = HPLM + 10% dialyzed FBS, 5.12 µM
[10] = HPLM + 10% dialyzed FBS, 15.4 µM
[11] = HPLM + 10% dialyzed FBS, 46.1 µM
[12] = RPMI 5 mM glucose + 10% FBS, 0.000781 µM
[13] = RPMI 5 mM glucose + 10% FBS, 0.00234 µM
[14] = RPMI 5 mM glucose + 10% FBS, 0.00702 µM
[15] = RPMI 5 mM glucose + 10% FBS, 0.0211 µM
[16] = RPMI 5 mM glucose + 10% FBS, 0.0632 µM
[17] = RPMI 5 mM glucose + 10% FBS, 0.19 µM
[18] = RPMI 5 mM glucose + 10% FBS, 0.569 µM
[19] = RPMI 5 mM glucose + 10% FBS, 1.71 µM
[20] = RPMI 5 mM glucose + 10% FBS, 5.12 µM
[21] = RPMI 5 mM glucose + 10% FBS, 15.4 µM
[22] = RPMI 5 mM glucose + 10% FBS, 46.1 µM
[23] = RPMI 5 mM glucose + 10% dialyzed FBS, 0.000781 µM
[24] = RPMI 5 mM glucose + 10% dialyzed FBS, 0.00234 µM
[25] = RPMI 5 mM glucose + 10% dialyzed FBS, 0.00702 µM
[26] = RPMI 5 mM glucose + 10% dialyzed FBS, 0.0211 µM
[27] = RPMI 5 mM glucose + 10% dialyzed FBS, 0.0632 µM
[28] = RPMI 5 mM glucose + 10% dialyzed FBS, 0.19 µM
[29] = RPMI 5 mM glucose + 10% dialyzed FBS, 0.569 µM
[30] = RPMI 5 mM glucose + 10% dialyzed FBS, 1.71 µM
[31] = RPMI 5 mM glucose + 10% dialyzed FBS, 5.12 µM
[32] = RPMI 5 mM glucose + 10% dialyzed FBS, 15.4 µM
[33] = RPMI 5 mM glucose + 10% dialyzed FBS, 46.1 µM

SMILES	cell viability [1] [%]	cell viability [2] [%]	cell viability [3] [%]	cell viability [4] [%]	cell viability [5] [%]	cell viability [6] [%]	cell viability [7] [%]	cell viability [8] [%]	cell viability [9] [%]	cell viability [10] [%]	cell viability [11] [%]	cell viability [12] [%]	cell viability [13] [%]	cell viability [14] [%]	cell viability [15] [%]	cell viability [16] [%]	cell viability [17] [%]	cell viability [18] [%]	cell viability [19] [%]	cell viability [20] [%]	cell viability [21] [%]	cell viability [22] [%]	cell viability [23] [%]	cell viability [24] [%]	cell viability [25] [%]	cell viability [26] [%]	cell viability [27] [%]	cell viability [28] [%]	cell viability [29] [%]	cell viability [30] [%]	cell viability [31] [%]	cell viability [32] [%]	cell viability [33] [%]
CCN(CC)CCNC(=O)c1ccc2nc(-c3ccccc3)c(-c3ccc(CN4CCC(n5c(=O)[nH]c6ccccc65)CC4)cc3)nc2c1	108	116	120	103	83.8	54	36.8	26.7	4.83	4.21	3.45	108	106	124	83.8	56.4	34.4	32.9	28.9	11	7.63	3.28	117	112	127	92.2	75.7	56.5	45.8	32.6	13.6	5.86	3.2
Cc1n[nH]c(C)c1Cc1sc2c(c1C(=O)N1C[C@H](O)CO1)c(=O)n(C)c(=O)n2CC(C)C	81.6	102	90.5	105	80.3	79.3	67.7	68	62.2	58.4	43.4	110	111	116	122	98.2	106	89.1	85.2	87.9	85.9	63.5	97.8	105	108	103	96.2	88.8	103	93.1	87.4	85	74.8
COc1cc([C@@H]2c3cc4c(cc3[C@@H](O)C3COC(=O)C32)OCO4)cc(OC)c1O (stereo partly drawn)	73.2	86.7	86	21.1	84.4	46.9	22.2	24.3	16.6	11.3	9.58	96.4	83.3	101	13.1	104	47.6	19.7	14.7	9.69	4.01	4.26	78.6	70.2	98.2	16.1	82.9	52.8	19	19.5	11.8	7.08	4.88
COc1c(C)c2c(c(O)c1C/C=C(\C)CCC(=O)OCCN1CCOCC1)C(=O)OC2	107	110	99.8	117	105	121	92.8	106	64.6	39.2	26.2	102	113	107	115	116	116	101	95.8	60.7	38.7	26	110	110	101	111	104	117	107	124	86.4	56	32.6
Clc1ccc(C(Cn2ccnc2)OCc2ccc(Sc3ccccc3)cc2)c(Cl)c1 (stereo not drawn)	88.8	74.9	99.2	96.4	98.2	79.4	93.6	77.9	82.1	87.1	81.1	110	104	109	108	116	106	105	92.2	77	92.7	95.8	101	95.7	107	122	130	100	103	93.5	81	96.8	75.7
Cc1ccnc(N[S+](=O)([O-])c2ccc(NC(=O)Nc3ccc([S+](=O)([O-])Nc4nccc(C)n4)cc3)cc2)n1	77.9	90.3	89.8	90.1	86.8	38.8	35.6	10.6	8.5	7.84	6.37	86.6	73.1	79.4	75.2	64.8	9.99	8.62	6.14	6.29	5.29	3.81	77.8	86.7	87.7	85.8	77.5	21.9	19.7	8.34	8.01	7.59	5.43
O=C(N[C@H]1CN2CCC1CC2)c1ccc(Cl)cc1	89.3	96.5	95.5	99.8	98.7	87.4	96.3	105	102	98.5	84.4	84	92.2	99.5	87.8	96.1	95.9	101	99.5	93.3	88.6	60.2	93.2	98.9	94.8	94.3	104	116	96.1	93.2	94.1	107	76.1
COc1ccccc1N1CCN(CC(O)COc2cccc3ccccc23)CC1 (stereo not drawn)	62.9	116	124	131	136	119	111	108	121	109	88.8																						
O=C(Nc1ccncc1)C(=O)c1cn(Cc2ccc(Cl)cc2)c2ccccc12	92.5	94	91.7	81.9	54.8	31.5	29.4	24.7	25.7	28.5	26.3	130	105	122	114	57.7	33	17.8	18.2	18.7	22.2	28	107	88.4	95.3	75.9	58.5	27.7	23.9	20.9	26.6	25.3	30.5
Cc1ccc(Nc2nccc(N(C)c3ccc4c(C)n(C)nc4c3)n2)cc1[S+](N)(=O)[O-]	83.9	89	88	105	98.2	91.7	91.3	91	75.3	61.3	18.1	87.2	92.9	95.7	109	86.3	91.6	77.5	79.6	63	38.9	7.79	95.9	83	99.7	105	92.3	101	90.2	81.8	57.5	49.2	14.8
O=C(Nc1cccc2c(=O)cc(-c3nnn[nH]3)oc12)c1ccc(OCCCCc2ccccc2)cc1	68.3	78.5	85.2	91.3	84.6	91.2	93	96	93.8	21.4	49.2	76.6	97.5	87	86.6	92.1	90.7	91.9	86.6	88.4	17.2	13.5	70.8	90.5	105	96.2	99.6	92.6	102	79.9	92.8	19.2	33.2
COc1cc([S+](C)(=O)[O-])ccc1Nc1nc2ccc(-c3ccc(NC(=O)[C@H](C)c4ccc(F)cc4)cc3)cn2n1	90.4	87.8	102	89.2	107	102	94.8	41.9	52.1	52.3	43.1	98	117	92.3	86.1	124	108	104	41.2	41.4	34.6	31	88.4	112	108	90.4	136	99.1	98.1	53.9	50	48.2	43
Oc1ccc(C2CNCCc3c2cc(O)c(O)c3Cl)cc1 (stereo not drawn)	98	103	90	91.2	91.5	104	90.8	48.5	102	89.5	108	83	95	97.2	96.6	84.6	97.5	90.8	47.5	103	91.4	94.6	81.9	93.1	86.6	96.6	76.9	112	100	70.2	114	101	102
CN(C)Cc1cccc(N/C(=C2\C(=O)Nc3cc(C(=O)N(C)C)ccc32)c2ccccc2)c1	75.8	88.4	100	98.6	112	101	108	97.2	90.7	55	2.72	92.4	87.5	102	104	109	114	104	102	71.2	7.07	1.12	74.2	103	96.5	108	103	110	111	115	85.6	26.6	1.38
Cc1nc(C(=O)NCC(=O)O)c(O)c2ccc(Oc3ccccc3)cc12	109	109	115	112	116	108	99.5	115	92.8	102	112	101	108	112	115	103	99.4	95.7	94.8	104	108	99.2	113	112	123	116	119	112	113	113	103	115	122
